Reference: PubChem BioAssay AID463229 (Broad Institute, 2010)
Where “and” joins values, the source holds several entries; their conditions need not be identical. Equal entries are not always repeated.

System: INS-1E rat beta cells, no cytokines, CellTiter-Glo ATP, 48 h
Assay: cytokine-free beta-cell viability effect – INS-1E rat cells, ATP luminescence, cherry pick, counter-screen for beta-cell apoptosis protection project, dose response (AID 463229)

For CCCOC(=O)c1ccc(-[n+]2c(-c3ccccc3)cc(-c3ccccc3)cc2-c2ccccc2)cc1, the AC50 was 2.15 µM.
O=C(N/N=C/c1ccc([N+](=O)[O-])s1)C(O)c1ccccc1 (stereo unspecified) showed an AC50 of 6.99 µM.
Compound Cc1ccc(-n2c(-c3ccc(Br)cc3)c[n+]3c2CCc2ccc4cccnc4c2-3)cc1 has an AC50 of 0.482 µM.
CCCCCCCCSc1nnc(CSc2nc3nc(C)cc(C)n3n2)o1 was tested, and the AC50 was 26.1 µM.
Compound COc1ccc(-c2sc3ccccc3c2-c2ccc(OCCN3CCCCC3)cc2)cc1 has an AC50 of 14.8 µM.
O=C(CN1CCOCC1)N/N=C/c1c(O)ccc2ccccc12 gave an AC50 of 16.1 µM.
In the case of COc1ccc(O)c(/C=N/NC(=S)Nc2cccnc2)c1, the AC50 was 15.6 µM.
With Nc1nc2ccccc2n1/N=C/c1ccc([N+](=O)[O-])s1 the AC50 was 7.19 µM.
In the case of COC(=O)C1=C(C)N(Cc2ccccc2)C(=NCc2ccccc2)N[C@H]1c1cccc(C(F)(F)F)c1, the AC50 was 14.1 µM.
With Cc1cc(C)c2c(ccc3cccc[n+]32)c1 the AC50 was 6.45 µM.
Work on CC(=O)NC(c1cc(Cl)c2cccnc2c1O)C1CC1 (stereo unspecified) yielded an AC50 of 7.49 µM.
For COc1c(CC=C(C)C)cc(C2CC(=O)c3c(O)cc(O)cc3O2)cc1CC=C(C)C (stereo unspecified), the AC50 was 4.05 µM.
In the case of CC(CNC(=O)c1ccc(OC2CCN(Cc3ccccn3)CC2)cc1)Oc1cccnc1 (stereo unspecified), the AC50 was 7.36 µM.
In the case of CC1CC(=O)c2c(cc3c(-c4c(O)cc(O)c5c(O)c6c(cc45)OC(C)CC6=O)c(O)cc(O)c3c2O)O1 (stereo unspecified), the AC50 was 5.1 µM.
c1ccc(-c2cccc(-c3ccccn3)n2)nc1 gave an AC50 of 1.24 µM.
For Cc1ccc2c(c1)S/C(=C/c1ccc[n+](C)c1)N2CCO, the AC50 was 3.24 µM.
Work on Cc1ccc(-c2cc(-c3ccc(C)cc3)[n+](-c3ccc(C(=O)[O-])cc3)c(-c3ccc(C)cc3)c2)cc1 yielded an AC50 of 7.24 µM.
CN(C1=C(NC(=O)c2ccccc2)C(=O)c2ccccc2C1=O)C1CCS(=O)(=O)C1 (stereo unspecified) showed an AC50 of 4.84 µM.
Work on O=C(NC(c1cccnc1)C(F)(F)F)c1cc(COc2ccc3c(c2)CCCC3)on1 (stereo unspecified) yielded an AC50 of 4.62 µM.
In the case of COc1cnc(-c2ccccn2)nc1Sc1ccc(C)cc1, the AC50 was 17.2 µM.
Work on CN1CCN(C(c2ccc(C(F)(F)F)cc2)c2cc(Cl)c3cccnc3c2O)CC1 (stereo unspecified) yielded an AC50 of 6.69 µM.
With CCc1ccc(S(=O)(=O)/N=C2\C=C(Nc3ccc(C(=O)O)cc3)C(=O)c3ccccc32)cc1 the AC50 was 14.7 µM.
In the case of CCN1CCN(Cc2ccc(NC(=O)c3ccc(C)c(NC(=O)C(=O)c4c[nH]c5ccccc45)c3)cc2C(F)(F)F)CC1, the AC50 was 13.8 µM and 7.23 µM.
In the case of CC1=[N+](C)c2ccc3ccccc3c2C1(C)C, the AC50 was 14.6 µM.
Compound O=C(Nc1ccc(Br)c(C(F)(F)F)c1)c1ccc(C(F)(F)F)cc1 has an AC50 of 7.74 µM.
Oc1ccccc1C(Nc1nccs1)c1ccc2cccnc2c1O (stereo unspecified) gave an AC50 of 4.91 µM.
With Cc1ccc(O)c(NC(=S)NC(=O)c2ccc(-c3ccc(Cl)cc3)o2)c1 the AC50 was 23.9 µM.
O=C(Nc1ccc(Cl)cc1)Nc1csc([N+](=O)[O-])c1 was tested, and the AC50 was 7.65 µM.
COc1ccc(CCNc2ccc(C(CC(N)=O)NC(=O)c3ccc(Br)cc3)cc2[N+](=O)[O-])cc1 (stereo unspecified) gave an AC50 of 16.8 µM.
CCCCCCCNC1=CC(=O)CC(c2ccccc2)C1 (stereo unspecified) showed an AC50 of 9.84 µM.
O=C(Nc1nc(-c2ccccn2)cs1)c1cc(Cl)ccc1[N+](=O)[O-] was tested, and the AC50 was 4.6 µM.
COc1cc(CNC(C)c2ccccc2)cc(Br)c1OCc1ccc(F)cc1 (stereo unspecified) gave an AC50 of 13.8 µM.
In the case of Nc1cc2c3c(cccc3c1)C(=O)N(CCN1CCCC1)C2=O, the AC50 was 12.7 µM.
O=C(Nc1cccnc1)c1cccnc1 was tested, and the AC50 was 10.9 µM.
CCC(O)C1CCN(C(=O)c2cc(COc3ccc4ncccc4c3)on2)CC1 (stereo unspecified) showed an AC50 of 5.52 µM.
For COc1ccc(Nc2ccc3c(c2)=NC2(CCCCC2)[N+]=3[O-])cc1, the AC50 was 7.8 µM.
Compound O=C(OCn1ncc(Cl)c(Cl)c1=O)c1ccccc1Cl has an AC50 of 7.84 µM.
Cc1cc(-c2ccccc2)n(-c2cc(N/N=C/c3ccccc3O)ncn2)n1 was tested, and the AC50 was 7.17 µM.
Cc1ccc2cc(C3C(C#N)=C(N)Oc4c3ccc3cccnc43)c(=O)[nH]c2c1 (stereo unspecified) showed an AC50 of 5.81 µM.
COc1ccc(C2/C=C\CN(C(=O)C3CC3)[C@H](Cc3ccccc3)C(=O)N2Cc2ccc(F)cc2)cc1 (stereo partly specified) gave an AC50 of 14.5 µM.
Work on CCOC(=O)c1c(C)oc2c1C(=O)c1ccccc1C2=O yielded an AC50 of 12.3 µM.
O=C1C=C(c2ccc(F)cc2OCc2ccccc2)C[C@@H](c2ccc(Cl)cc2)C1 gave an AC50 of 5.46 µM.
N/C(=N\OC(=O)c1cccc(Cn2cc(C(F)(F)F)ccc2=O)c1)c1ccccc1 showed an AC50 of 7.71 µM.
COc1ccc(-[n+]2c(-c3ccccc3)cc(-c3ccccc3)cc2-c2ccccc2)cc1 was tested, and the AC50 was 1.71 µM.
For CC(CC(=O)N1CCN(c2cccc(Cl)c2)CC1)S(=O)(=O)c1ccc2c(c1)NC(=O)CO2 (stereo unspecified), the AC50 was 7.1 µM.
Cc1nnc(N/N=C/c2cc([N+](=O)[O-])c(N3CCC(C)CC3)cc2N2CCC(C)CC2)n1N gave an AC50 of 2.54 µM.
For Cc1oc2c(c1C(=O)c1ccccc1)C(=O)C(=O)c1ccccc1-2, the AC50 was 3.52 µM.
Work on COC(=O)[C@@H](Cc1ccccc1)N(Cc1ccccc1)S(=O)(=O)N(Cc1ccccc1)[C@H](Cc1ccccc1)C(=O)OC yielded an AC50 of 4.27 µM.
Cc1sc2ncnc(NCC(O)c3ccc([N+](=O)[O-])cc3)c2c1C (stereo unspecified) gave an AC50 of 5.1 µM.
CC(C)(C)c1cc([N+](=O)[O-])cc(C(C)(C)C)c1O was tested, and the AC50 was 2.8 µM.
CN1/C(=C\C(=S)NC(=O)c2cccc(Br)c2)C(C)(C)c2ccccc21 showed an AC50 of 3.93 µM.
With COc1ccccc1C(=O)Nc1nc(-c2ccc(S(=O)(=O)N3CCOCC3)cc2)cs1 the AC50 was 5.29 µM.
Compound CCc1cc(C(=O)NC2CCCc3c2cnn3-c2cccc(C)c2C)n(C)n1 (stereo unspecified) has an AC50 of less than 0.195 µM.
Compound COc1cc(OC)c2cc(C(=O)N/N=C/c3ccccc3O)[nH]c2c1 has an AC50 of 8.48 µM.
O=C(Nc1nc(-c2ccccn2)cs1)c1ccccc1-n1cnnn1 gave an AC50 of 5.32 µM.
CC1CCN(Cc2c(C(=O)N/N=C/c3ccccc3O)nnn2-c2nonc2N)CC1 gave an AC50 of 5.67 µM.
In the case of O=C(Nc1ccc(Cl)cc1)Nc1ccc(Cl)c(Cl)c1, the AC50 was 6.98 µM.
CCN1c2ccccc2NC2N=C(OC)C(c3ccccc3)C21 (stereo unspecified) showed an AC50 of 13.1 µM.
COc1ccc(OC)c(NC(=O)CSc2nnc(-c3cccnc3)s2)c1 gave an AC50 of 7.37 µM.
Work on CCOC(=O)N1CCN(S(=O)(=O)c2ccc(C(=O)NNc3nc4ccc(Cl)cc4s3)cc2)CC1 yielded an AC50 of 5.43 µM.
For O=C(COC(=O)c1cn(-c2ccccc2)nc1-c1ccccc1)c1cccc([N+](=O)[O-])c1, the AC50 was 2.8 µM.
For COc1ccc(-c2nc(NC(=O)c3cc(C(C)(C)C)nn3C)sc2C)cc1, the AC50 was 17.6 µM.
O=C(Nc1ccc(OC(F)F)cc1)Nc1cccc(C(F)(F)F)c1 was tested, and the AC50 was 7.65 µM.
In the case of c1ccc(/N=C2\N=C(Nc3ccccn3)c3ccccc32)nc1, the AC50 was 5.52 µM.
In the case of Cc1ccc(C(C)C)c(OCc2ccc(C(=O)N/N=C/c3ccc(O)cc3O)cc2)c1, the AC50 was 3.99 µM.
Work on COC(=O)[C@H](CC(C)C)N(Cc1ccccc1)S(=O)(=O)N(Cc1ccc(OC)cc1)[C@@H](CC(C)C)C(=O)OC yielded an AC50 of 5.08 µM.
Compound CCCC(=O)NC(c1ccc(N(C)C)cc1)c1ccc2cccnc2c1O (stereo unspecified) has an AC50 of 2.08 µM.
Work on CCCCCCc1ccc(N2C[C@H](Cc3ccccc3)[C@@H](CC(=O)NCc3ccc(OC)cc3)C2=O)cc1 yielded an AC50 of 13.6 µM.
With C#CCOCCOCCOCCNc1nc(N2CCN(C(=O)CCCCCCCCCCNC(=O)Cn3cc(C[C@@H](C)O)nn3)CC2)nc(N2CCN(C(=O)CCCCCCCCCCNC(=O)[C@@H]([C@H](C)CC)n3cc(CCCCCN)nn3)CC2)n1 the AC50 was 7.83 µM.
With O=c1cc(N2CCN(c3cccc(Cl)c3)CC2)[nH]c(=O)n1C1CCCCC1 the AC50 was 1.66 µM.
COc1ccc2nc(C)cc(N/N=C/c3ccc(F)cc3)c2c1 was tested, and the AC50 was 7.11 µM.
O=C(NCc1cccnc1)c1ccc(NC(=O)c2ccc(Br)cc2)cc1 was tested, and the AC50 was less than 0.195 µM.
In the case of Oc1ccc(Br)cc1-c1cc(-c2ccc(Cl)cc2)n[nH]1, the AC50 was 11.1 µM.
Work on Cn1c(=O)[nH]c(=O)c2c1nc([N+](=O)[O-])n2Cc1ccccc1 yielded an AC50 of 6.67 µM.
For Cc1ccccc1OCCCCn1cnc2ccccc21, the AC50 was 7.47 µM.
For Cc1ccc2nc(-c3cccc(-c4cccc(Cl)c4)c3)c(NCc3ccccc3)n2c1, the AC50 was 7.11 µM.
CCN1c2ccccc2N(C)C1(C)c1ccccc1 (stereo unspecified) gave an AC50 of 4.56 µM.
Compound CCc1ccc(CN(C)C(=O)c2cc(COc3cccc4cnccc34)on2)cc1 has an AC50 of 7.91 µM.
Work on NNc1ncnc2scc(-c3ccc(Cl)cc3)c12 yielded an AC50 of 14.5 µM.
CCCCCCCCCCOC(=O)Cn1c(COc2ccccc2OC)[n+](C)c2ccccc21 showed an AC50 of 1.09 µM.
In the case of Cc1occc1C(=O)N/N=C/c1ccc2c(c1)OCO2, the AC50 was 5.48 µM.
Compound COc1ccc2cc1Oc1ccc(cc1)C[C@H]1c3c(cc(OC)c4c3Oc3c(ccc5c3[C@H](C2)N(C)CC5)O4)CCN1C has an AC50 of 7.68 µM.
Cc1ccc(-n2c(Cl)c(Cl)nc(Cl)c2=O)cc1 gave an AC50 of 6.66 µM.
O=C(c1ccc2c(c1)[nH]c(=S)n1c3ccccc3nc21)N1CCN(c2cccc(Cl)c2)CC1 gave an AC50 of 14.5 µM.
For CN(Cc1cccnc1)C(=O)c1cc(COc2ccc3ncccc3c2)on1, the AC50 was 9.3 µM.
Work on Cc1ccc(NC(=S)N/N=C/c2ccc([N+](=O)[O-])s2)cc1 yielded an AC50 of 6.79 µM.
CCC(C)c1ccc(NC(=S)NC2CCN(Cc3ccccc3)CC2)cc1 (stereo unspecified) was tested, and the AC50 was 10.4 µM.
With C=CC[n+]1c(-c2ccc(OCC)cc2)csc1NNC(=O)Nc1ccccc1 the AC50 was 12.1 µM.
For O=C(Cn1c(-c2ccccc2)c[n+]2ccsc12)c1ccc([N+](=O)[O-])cc1, the AC50 was 6.04 µM.
O=C(CNc1cccc2ccccc12)N/N=C/c1ccc([N+](=O)[O-])o1 showed an AC50 of 11.5 µM.
COc1cccc(C(NC(C)=O)c2ccc3cccnc3c2O)c1 (stereo unspecified) gave an AC50 of 3.78 µM.
With c1ccc(-c2nc(NCc3ccco3)c3ccccc3n2)nc1 the AC50 was 8.46 µM.
CCCCC(=O)NC(c1ccc(Cl)cc1)c1ccc2cccnc2c1O (stereo unspecified) gave an AC50 of 1.35 µM.
O=C1C=C(c2cccs2)C[C@H](c2ccccc2)[C@H]1n1nnc([N+](=O)[O-])n1 was tested, and the AC50 was 12.8 µM.
CC1=C(C)/C(=N\OS(=O)(=O)c2ccc(C)cc2)C=CC1=O was tested, and the AC50 was 4.47 µM.
For CCN(CC)S(=O)(=O)c1cc(NC(=O)CNc2cccc(S(=O)(=O)N3CCCC3)c2)ccc1C, the AC50 was 7.43 µM.
Compound CN1CCN(c2ccc(CNS(=O)(=O)Cc3cccc(C(F)(F)F)c3)cc2)CC1 has an AC50 of 8.93 µM.
Work on CCCCCCCC[n+]1c(C)n(-c2ccccc2)c2ccc(NC(C)=O)cc21 yielded an AC50 of 3.76 µM.
In the case of COC(=O)c1cc(O)cc(OC)c1Oc1cc(C)cc(O)c1C(=O)O, the AC50 was 5.37 µM.
Compound Nc1c(C(=O)Nc2ccc(S(=O)(=O)N3CCCC3)cc2)sc2nc3cc4c(cc3cc12)CCC4 has an AC50 of 4.63 µM.
NC(=O)c1c(-c2ccc(Cl)cc2Cl)csc1NC(=O)Cc1ccccc1 showed an AC50 of 4.08 µM.
Cn1nccc1C(=O)NC1CCCc2c1cnn2-c1ccc(C(C)(C)C)cc1 (stereo unspecified) showed an AC50 of 2.11 µM.
O=C(Nc1nc2ccccc2s1)c1cc(-c2ccccc2)nn1-c1ccccc1 gave an AC50 of 3.74 µM.
O=C(/C=C/NNC(=O)c1ccccc1)c1ccc([N+](=O)[O-])cc1 was tested, and the AC50 was 5.76 µM.
Work on CCN(CC)CCN1c2ccccc2Sc2ccc3ccccc3c21 yielded an AC50 of 18.1 µM.
In the case of N#C/C(=N\Nc1ccc(Cl)cc1)C(=O)c1ccccc1, the AC50 was 2.84 µM.
